Measurements as given in PubChem BioAssay AID192 (DTP/NCI, 2004).
Inconclusive results and toxic doses are left out. Rule for the calls: active = survival T/C of 150% or more; inactive = T/C below 125% in these data.

Tested on: BDF1 mice, B16 melanoma ip, median survival T/C
Test: NCI In Vivo Anticancer Drug Screen. Data for tumor model B16 Melanoma (intraperitoneal) in B6D2F1 (BDF1) mice
Details: endpoint: median survival time, schedule: Q01DX009 (ip), higher = longer survival
Description: The antitumor activity of compounds was measured in mice bearing transplantable tumors. Survival or tumor size were measured and the results are expressed as the measurement made in the treated group (T) divided by the measurement made in the vehicle treated control group (C). The tumor model used in this assay is B16 Melanoma (intraperitoneal) in B6D2F1 (BDF1) mice

[1] = dose: 100.0 mg/kg/injection, vehicle: Klucel (hydroxypropylcellulose) (HPC)
[2] = dose: 200.0 mg/kg/injection, vehicle: Klucel (hydroxypropylcellulose) (HPC)

Measured: T/C

C/C=C/c1ccc(OC(C)=O)c(OC)c1
inactive: dose: 100.0 mg/kg/injection, vehicle: saline with Tween-80 106 % of control | dose: 200.0 mg/kg/injection, vehicle: saline with Tween-80 97 % of control | dose: 400.0 mg/kg/injection, vehicle: saline with Tween-80 100 % of control

Cc1cc([N+](=O)[O-])cc(C)c1OC(=O)c1ccc(N=C(N)N)cc1
inactive: dose: 12.5 mg/kg/injection, vehicle: Klucel (hydroxypropylcellulose) (HPC) 98 % of control | dose: 25.0 mg/kg/injection, vehicle: Klucel (hydroxypropylcellulose) (HPC) 97 % of control | dose: 50.0 mg/kg/injection, vehicle: Klucel (hydroxypropylcellulose) (HPC) 90 % of control

O=S(=O)(NC(=S)S)c1ccccc1
inactive: dose: 12.5 mg/kg/injection, vehicle: water 91 % of control | dose: 25.0 mg/kg/injection, vehicle: water 94 % of control | dose: 50.0 mg/kg/injection, vehicle: water 86 % of control

O=C1OCC2C1Cc1cc(O)c(O)cc1C2c1ccc(O)c(O)c1 (stereo not given)
inactive: [1] 112 % of control | [2] 94 % of control | dose: 400.0 mg/kg/injection, vehicle: Klucel (hydroxypropylcellulose) (HPC) 105 % of control

Oc1ccc(/C=N/Nc2nnc(N/N=C/c3ccc(O)cc3O)c3ccccc23)c(O)c1
inactive: dose: 3.13 mg/kg/injection, vehicle: suspension in saline 101 % of control | dose: 6.25 mg/kg/injection, vehicle: suspension in saline 98 % of control | dose: 12.5 mg/kg/injection, vehicle: suspension in saline 89 % of control | dose: 25.0 mg/kg/injection, vehicle: suspension in saline 90 % of control

COC(=O)[C@@H]1[C@@H](O)[C@H](OC(=O)c2cc(OC)c(OC)c(OC)c2)C[C@@H]2CN3CCc4c([nH]c5ccccc45)[C@H]3C[C@@H]21
inactive: dose: 1.5 mg/kg/injection, vehicle: Klucel (hydroxypropylcellulose) (HPC) 107 % of control | dose: 3.0 mg/kg/injection, vehicle: Klucel (hydroxypropylcellulose) (HPC) 98 % of control | dose: 6.0 mg/kg/injection, vehicle: Klucel (hydroxypropylcellulose) (HPC) 97 % of control

COc1ccc(N=C(N)NC#N)cc1
inactive: [1] 105 % of control | [2] 99 % of control

[Cl][Hg][c]1ccc2ccccc2c1
inactive: dose: 1.5 mg/kg/injection, vehicle: gum acacia 108 % of control | dose: 3.0 mg/kg/injection, vehicle: gum acacia 95 % of control | dose: 6.0 mg/kg/injection, vehicle: gum acacia 95 % of control | dose: 12.5 mg/kg/injection, vehicle: gum acacia 96 % of control

NC1=NC(=S)C2N=C(N=Nc3ccc(C(=O)NC(CCC(=O)O)C(=O)O)cc3)N=C2N1 (stereo not given)
inactive: dose: 0.09 mg/kg/injection, vehicle: Klucel (hydroxypropylcellulose) (HPC) 100 % of control | dose: 0.19 mg/kg/injection, vehicle: Klucel (hydroxypropylcellulose) (HPC) 107 % of control | dose: 0.39 mg/kg/injection, vehicle: Klucel (hydroxypropylcellulose) (HPC) 111 % of control | dose: 0.78 mg/kg/injection, vehicle: Klucel (hydroxypropylcellulose) (HPC) 107 % of control | dose: 1.56 mg/kg/injection, vehicle: Klucel (hydroxypropylcellulose) (HPC) 89 % of control
